We go through 14 compounds from patent US10329309B2, “3-(3H-imidazo[4,5-B]pyridin-2-yl)-1H-pyrazolo[4,3-B]pyridines and therapeutic uses thereof” (Samumed, LLC, priority 2015, dated 2019).

A value given as a limit tells only on which side of the number the result lay.

Holding throughout (format): cell-based
Assay [1] deals with Wnt activity (Sp5-Luc reporter, SW480 colon carcinoma cells). Briefly: Screening assay for Wnt activity: Sp5-Luc reporter gene assay in SW480 cells. As to conditions: Homo sapiens; for inhibition at 10 µM: 10 μM compound, read-out: percent inhibition at 10 μM (given for EC50 of >10 μM); for EC50: overnight incubation, 10-point dose-response from 10 μM. In short, it runs like this: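 SW480 cells stably carrying Sp5-Luc reporter (eight TCF/LEF sites) plated at 4,000/well in 1% FBS medium with compound (10-point 1:3 series from 10 μM, 0.1% DMSO) overnight at 37 °C. BrightGlo luminescence normalized to DMSO; EC50 by four-parameter fit, else % inhibition at 10 μM.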
(In general: In a reporter assay the amount or activity of a reporter protein is the signal.)

For assay [2], the system named is SW480 colon cancer cells. Briefly: Cell viability assay (CellTiter-Blue), four days. As to conditions: Homo sapiens, 96 h; for EC50: CellTiter-Blue cell viability; for inhibition at 10 µM: read-out: percent inhibition at 10 μM (given for EC50 of >10 μM). Summed up: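 SW480 colon cancer cells (~2×10^3/well) exposed to 8-point 1:3 dilutions from 10 μM to 0.0045 μM for four days at 37 °C/5% CO2. Viability read by resazurin (CellTiter-Blue) fluorescence after ~3 h, Ex 560/Em 590 nm. EC50 from non-linear regression; percent inhibition at 10 μM given when EC50 >10 μM.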
On the technique in general: The colour change of resazurin is a common sign of viable cells or microbes.

Assay [3] relates to IL-6 (THP-1 cells). Briefly: Inhibition of IL-6 in LPS-stimulated THP-1 monocytes (HTRF). Particulars: Homo sapiens; for EC50: LPS 500 ng/mL, IL-6 by HTRF; for inhibition at 10 µM: LPS stimulated, IL-6, at 10 μM, read-out: percent inhibition at 10 μM (given for EC50 of >10 μM). In short, it runs like this: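 THP-1 cells, serum-starved in 1% FBS for 24 h, were pre-incubated 2 h with compound (10-point, 1:3 from 10 μM, 0.1% DMSO), then stimulated with 500 ng/mL LPS for 22 h at 37 °C. IL-6 was quantified by HTRF 665/620 ratio. EC50 was fitted from DMSO-normalized data; above 10 μM, % inhibition at 10 μM is given.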
(In general: Time-resolved FRET reads energy transfer from a long-lived donor to a nearby acceptor.)

The inhibition is the drop in the measured response relative to a control, in per cent. The EC50 is the concentration that produces a half-maximal response. A high value points to lower potency in that assay. As for `O=C(Nc1cncc(-c2ccc3[nH]nc(-c4nc5c(-c6ccccc6F)ccnc5[nH]4)c3n2)c1)C1CCCC1` [Compound 78, N-(5-(3-(7-(2-fluorophenyl)-3H-imidazo[4,5-b]pyridin-2-yl)-1H-pyrazolo [4,3-b]pyridin-5-yl)pyridin-3-yl)cyclopentanecarboxamide], the inhibition at 10 µM in assay [1] was 39.4%; in assay [2], 12.3%. For the same compound, the values for the EC50 in assay [1], in assay [2] and in assay [3] were above 10 µM, above 10 µM and 7.92 µM, respectively.
For the compound `CN1CCN(c2ccnc3[nH]c(-c4n[nH]c5ccc(-c6cncc(OC7CCCCC7)c6)nc45)nc23)CC1` [Compound 639, 5-(5-(Cyclohexyloxy)pyridin-3-yl)-3-(7-(4-methylpiperazin-1-yl)-3H-imidazo[4,5-b]pyridin-2-yl)-1H-pyrazolo[4,3-b]pyridine], the EC50 in assay [1] is 4.06 µM; in assay [2], 5.85 µM; in assay [3], above 10 µM. Besides, the inhibition at 10 µM in assay [3] was 33.5%.
Take `CS(=O)(=O)NCc1cc(F)cc(-c2ccnc3[nH]c(-c4n[nH]c5ccc(-c6cncc(NC(=O)CC7CCNCC7)c6)nc45)nc23)c1` [Compound 769, N-(5-(3-(7-(3-Fluoro-5-(methylsulfonamidomethyl)phenyl)-3H-imidazo[4,5-b]pyridin-2-yl)-1H-pyrazolo[4,3-b]pyridin-5-yl)pyridin-3-yl)-2-(piperidin-4-yl)acetamide]: the figures for the inhibition at 10 µM in assay [1] and in assay [2] were 12.1% and 8.5%, respectively. Besides, the EC50 in assay [1] is above 10 µM; in assay [2] it was above 10 µM; in assay [3], 0.036 µM.
In the case of `Oc1cncc(-c2ccc3[nH]nc(-c4nc5cccnc5[nH]4)c3n2)c1` [Compound 661, 5-(3-(3H-Imidazo[4,5-b]pyridin-2-yl)-1H-pyrazolo[4,3-b]pyridin-5-yl) pyridin-3-ol], the inhibition at 10 µM came out at 7.2% in assay [1], 13% in assay [2] and 27.9% in assay [3]. The EC50 in assay [1], in assay [2] and in assay [3] was above 10 µM in each case.
Take `CN(C)CCOc1cncc(-c2ccc3[nH]nc(-c4nc5c(-c6cccs6)ccnc5[nH]4)c3n2)c1` [Compound 707, N,N-Dimethyl-2-((5-(3-(7-(thiophen-2-yl)-3H-imidazo[4,5-b]pyridin-2-yl)-1H-pyrazolo[4,3-b]pyridin-5-yl)pyridin-3-yl)oxy)ethan-1-amine]: the figures for the EC50 in assay [1], in assay [2] and in assay [3] were 3.57 µM, 3.87 µM and above 10 µM, respectively. Further, the inhibition at 10 µM in assay [3] was determined as 35.1%.
Turning to `CC(C)C(=O)Nc1cncc(-c2ccc3[nH]nc(-c4nc5c(-c6cccnc6)ccnc5[nH]4)c3n2)c1` [Compound 93, N-(5-(3-(7-(pyridin-3-yl)-3H-imidazo[4,5-b]pyridin-2-yl)-1H-pyrazolo[4,3-b]pyridin-5-yl)pyridin-3-yl)isobutyramide], the values for the inhibition at 10 µM in assay [1] and in assay [2] were 10.2% and 8.1%, respectively. For the same compound, the EC50 is above 10 µM in assay [1], above 10 µM in assay [2] and 0.984 µM in assay [3].
In the case of `c1cnc2[nH]c(-c3n[nH]c4ccc(-c5cn[nH]c5)nc34)nc2c1` [Compound 651, 3-(3H-Imidazo[4,5-b]pyridin-2-yl)-5-(1H-pyrazol-4-yl)-1H-pyrazolo[4,3-b]pyridine], the inhibition at 10 µM in assay [1] is 12%; in assay [2], 3.1%; in assay [3], 0%. Also, the EC50 in assay [1], in assay [2] and in assay [3] was above 10 µM throughout.
On to `COc1cncc(-c2ccc3[nH]nc(-c4nc5c(N6CCCCC6)ccnc5[nH]4)c3n2)c1` [Compound 612, 5-(5-Methoxypyridin-3-yl)-3-(7-(piperidin-1-yl)-3H-imidazo[4,5-b]pyridin-2-yl)-1H-pyrazolo[4,3-b]pyridine], for which the results for the inhibition at 10 µM in assay [1], in assay [2] and in assay [3] were 5.8%, 6.1% and 44.6%, respectively. Also, the EC50 in assay [1], in assay [2] and in assay [3] was above 10 µM throughout.
As to `Cc1cn(-c2ccnc3[nH]c(-c4n[nH]c5ccc(-c6cncc(OCCN(C)C)c6)nc45)nc23)cn1` [Compound 627, N,N-Dimethyl-2-((5-(3-(7-(4-methyl-1H-imidazol-1-yl)-3H-imidazo[4,5-b]pyridin-2-yl)-1H-pyrazolo[4,3-b]pyridin-5-yl)pyridin-3-yl)oxy)ethan-1-amine], the inhibition at 10 µM came out at 22.4% in assay [1] and 14.8% in assay [2]. In addition, the EC50 in assay [1] is above 10 µM; in assay [2], above 10 µM; in assay [3] it was 0.404 µM.
Regarding `CC(C)(C)C(=O)Nc1cncc(-c2ccc3[nH]nc(-c4nc5c(-c6ccc(F)cc6)ccnc5[nH]4)c3n2)c1` [Compound 36, N-(5-(3-(7-(4-fluorophenyl)-3H-imidazo[4,5-b]pyridin-2-yl)-1H-pyrazolo [4,3-b]pyridin-5-yl)pyridin-3-yl)pivalamide], the inhibition at 10 µM in assay [1] came to 28.4%; in assay [2], 15%; in assay [3], 19.2%. The half-maximal effective concentration (EC50) in assay [1], in assay [2] and in assay [3] was above 10 µM throughout.
`CCCC(=O)Nc1cncc(-c2ccc3[nH]nc(-c4nc5c(-c6cc(F)cc(CNS(C)(=O)=O)c6)ccnc5[nH]4)c3n2)c1` [Compound 493, N-(5-(3-(7-(3-fluoro-5-(methylsulfonamidomethyl)phenyl)-3H-imidazo[4,5-b]pyridin-2-yl)-1H-pyrazolo[4,3-b]pyridin-5-yl)pyridin-3-yl)butyramide]: the inhibition at 10 µM is 14.8% in assay [1], 3.9% in assay [2] and 23.4% in assay [3]. The EC50 in assay [1], in assay [2] and in assay [3] was above 10 µM in each case.
As to `Cc1cn(-c2ccnc3[nH]c(-c4n[nH]c5ccc(C6=CCNCC6)nc45)nc23)cn1` [Compound 618, 3-(7-(4-Methyl-1H-imidazol-1-yl)-3H-imidazo[4,5-b]pyridin-2-yl)-5-(1,2,3,6-tetrahydropyridin-4-yl)-1H-pyrazolo[4,3-b]pyridine], the figures for the inhibition at 10 µM in assay [1] and in assay [2] were 8.7% and 2.8%, respectively. Further, the EC50 is above 10 µM in assay [1], above 10 µM in assay [2] and 1.55 µM in assay [3].
Regarding `CN1CCN(c2ccnc3[nH]c(-c4n[nH]c5ccc(-c6cnccn6)nc45)nc23)CC1` [Compound 648, 3-(7-(4-Methylpiperazin-1-yl)-3H-imidazo[4,5-b]pyridin-2-yl)-5-(pyrazin-2-yl)-1H-pyrazolo[4,3-b]pyridine], the values for the EC50 in assay [1], in assay [2] and in assay [3] were 4.34 µM, 3.91 µM and above 10 µM, respectively. Also, the inhibition at 10 µM in assay [3] was 9.9%.
Consider `O=C(Nc1cncc(-c2ccc3[nH]nc(-c4nc5c(-c6ccncc6)ccnc5[nH]4)c3n2)c1)C1CCCCC1` [Compound 135, N-(5-(3-(7-(pyridin-4-yl)-3H-imidazo[4,5-b]pyridin-2-yl)-1H-pyrazolo[4,3-b]pyridin-5-yl)pyridin-3-yl)cyclohexanecarboxamide], for which the inhibition at 10 µM in assay [1] was found to be 10.4%; in assay [2] it was 3.8%; in assay [3], 22.1%. In addition, the EC50 in assay [1] is above 10 µM; in assay [2] it was above 10 µM; in assay [3], above 1 µM.
